According to ChEMBL document CHEMBL1135488, “Prediction of volume of distribution values in humans for neutral and basic drugs using physicochemical measurements and plasma protein binding data” (J Med Chem, 2002):

What was measured:
[1] = pH 7.4
[2] = Ionisation constant (pKa); type: physicochemical
clinical = conditions: human, in vivo, iv
in vitro [3] = conditions: tissues
in vitro [4] = conditions: human, plasma

| Structure (SMILES) | Fraction ionised [1] | chromatographic logD (physchem) | pKa [2] | Vd (clinical) [L/kg] | fraction unbound (in vitro [3]) | fraction unbound (in vitro [4]) |
| --- | --- | --- | --- | --- | --- | --- |
| Cc1ccc(O)c([C@H](CCN(C(C)C)C(C)C)c2ccccc2)c1 [TOLTERODINE] | 0.997 | 1.04 | 9.87 | 1.3 | 0.012 | – |
| CC(=O)Nc1ccc(O)cc1 [ACETAMINOPHEN] | 0 | 0.38 | Not Active | 0.95 | 0.503 | 1 |
| CCN(CC)CCCC(C)Nc1c2ccc(Cl)cc2nc2ccc(OC)cc12 (stereo unspecified) [QUINACRINE] | – | 1.1 | 10.2 | 223 | – | 0.103 |
| CN1C[C@H](C(=O)N[C@]2(C)O[C@@]3(O)[C@@H]4CCCN4C(=O)[C@H](Cc4ccccc4)N3C2=O)C=C2c3cccc4[nH]cc(c34)C[C@H]21 [ERGOTAMINE] | 0.074 | 4.3 | – | 2.7 | 0.003 | 0.02 |
| CCC(C)n1ncn(-c2ccc(N3CCN(c4ccc(OCC5COC(Cn6cncn6)(c6ccc(Cl)cc6Cl)O5)cc4)CC3)cc2)c1=O (stereo unspecified) [ITRACONAZOLE] | 0 | 5.79 | Not Active | 3.9 | – | 0.028 |
| CCc1nn(CCCN2CCN(c3cccc(Cl)c3)CC2)c(=O)n1CCOc1ccccc1 [NEFAZODONE] | 0.197 | 4.83 | 6.79 | 0.51 | 0.008 | – |
| CN1CCCC(n2nc(Cc3ccc(Cl)cc3)c3ccccc3c2=O)CC1 (stereo unspecified) [AZELASTINE] | 0.993 | 1.93 | 9.54 | 15 | 0.004 | 0.17 |
